# Measured values as given in patent publication US11840686B2, “Modulation of prekallikrein (PKK) expression” (Ionis Pharmaceuticals, Inc., priority 2013, dated 2023).
# Strand notation (5' to 3'): a small letter for the sugar, then the base; units joined by * are phosphorothioate-linked, units joined directly phosphodiester-linked; [ ] holds rarer units or linkages, { } end groups; capitals alone tell only the bases. e = 2'-O-(2-methoxyethyl) (MOE); [5mC] = 5-methylcytosine; d = 2'-deoxy (DNA)
# Test system: human PKK mRNA
# Assay: Antisense inhibition of human PKK mRNA in HepaRG cells, 3,000 nM (Example 1)
# Format: cell-based
# Conditions: Table 1; PKK mRNA, HepaRG cells, 3,000 nM, electroporation, ~24 h, relative to untreated control cells
# Description: Antisense oligonucleotides were designed targeting a PKK nucleic acid and were tested for their effects on PKK mRNA in vitro. HepaRG™ cells, which are terminally differentiated hepatic cells derived from a human hepatic progenitor cell line and retain many characteristics of primary human hepatocytes (Lubberstedt M. et al., J. Pharmacol. Toxicol. Methods 2011 63: 59-68), were used in the screen.
# The chimeric antisense oligonucleotides in the tables below were designed as 5-10-5 MOE gapmers. The gapmers are 20 nucleosides in length, wherein the central gap segment comprises of ten 2′-deoxynucleosides and is flanked by wing segments on the 5′ direction and the 3′ direction comprising five nucleosides each. Each nucleoside in the 5′ wing segment and each nucleoside in the 3′ wing segment has a 2′-O-methoxyethyl modification. The internucleoside linkages throughout each gapmer are phosphorothioate linkages. All cytosine residues throughout each gapmer are 5-methylcytosines. “Start site” indicates the 5′-most nucleoside to which the gapmer is targeted in the human gene sequence. “Stop site” indicates the 3′-most nucleoside to which the gapmer is targeted in the human gene sequence.
# Cultured HepaRG™ cells at a density of 20,000 cells per well were transfected using electroporation with 3,000 nM antisense oligonucleotide. After a treatment period of approximately 24 hours, RNA was isolated from the cells and PKK mRNA levels were measured by quantitative real-time PCR. Human primer probe set RTS3454 (forward sequence […], designated herein as SEQ ID NO: 20; reverse sequence […], designated herein as SEQ ID NO: 21; probe sequence […], designated herein as SEQ ID NO: 22) was used to measure mRNA levels. PKK mRNA levels were adjusted according to total RNA content, as measured by RIBOGREEN®. The antisense oligonucleotides were tested in a series of experiments that had similar culture conditions. Results are presented as percent inhibition of PKK, relative to untreated control cells.
row,Substance,% inhibition
1,530973 (antisense eG*eA*eG*eG*eA*dG*dT*dA*dG*dA*dG*dG*dA*dA*d[5mC]*eT*eT*eG*eG*eT) [compound 530973],52%
2,530969 (antisense eG*eT*eG*e[5mC]*e[5mC]*dA*d[5mC]*dT*dT*dT*d[5mC]*dA*dG*dA*dT*eG*eT*eT*eT*eT) [compound 530969],0%
3,530943 (antisense eA*eT*e[5mC]*e[5mC]*eA*d[5mC]*dA*dG*dG*dA*dA*dA*d[5mC]*dT*dG*eT*eA*eG*e[5mC]*eA) [compound 530943],56%
4,530985 (antisense eA*eA*eA*eT*eT*dT*dT*dA*dG*dA*dA*dT*dG*dG*d[5mC]*eA*eG*eG*eG*eT) [compound 530985],32%
5,530981 (antisense eT*eT*e[5mC]*eT*eT*dT*dT*dG*d[5mC]*dA*dG*dG*dT*dT*dA*eA*eA*eA*eG*eG) [compound 530981],0%
6,530953 (antisense eG*eA*eA*eA*eA*d[5mC]*dT*dG*dA*dA*dT*dA*dG*d[5mC]*dA*eA*eA*e[5mC]*eA*e[5mC]) [compound 530953],7%

# Same assay, conditions: Table 2; PKK mRNA, HepaRG cells, 3,000 nM, electroporation, ~24 h, relative to untreated control cells
row,Substance,% inhibition
1,531056 (antisense eT*eT*eT*e[5mC]*e[5mC]*d[5mC]*d[5mC]*d[5mC]*dT*dT*d[5mC]*dT*dT*dT*dA*eT*eA*eG*e[5mC]*e[5mC]) [compound 531056],45%
2,531051 (antisense eA*eT*e[5mC]*e[5mC]*eG*dT*dT*dG*dG*dG*dT*dT*dA*dT*dT*eT*eT*eA*eT*eA) [compound 531051],51%
3,531050 (antisense eT*eT*eG*eG*eG*dT*dT*dA*dT*dT*dT*dT*dA*dT*dA*eA*eT*e[5mC]*eT*eT) [compound 531050],18%
4,531016 (eT*eG*eT*e[5mC]*e[5mC]*dT*dA*dT*dG*dA*dG*dT*dG*dA*d[5mC]*e[5mC]*e[5mC]*eT*e[5mC]*e[5mC]; antisense) [compound 531016],39%
5,531054 (antisense e[5mC]*eT*eT*eT*eA*dT*dA*dG*d[5mC]*d[5mC]*dA*dG*d[5mC]*dA*d[5mC]*eA*eG*eA*e[5mC]*e[5mC]) [compound 531054],48%
6,531034 (antisense e[5mC]*eA*eT*eA*eT*dT*dG*dG*dT*dT*dT*dT*dT*dG*dG*eA*eA*eT*eT*e[5mC]) [compound 531034],36%
7,531018 (eG*eA*e[5mC]*e[5mC]*e[5mC]*dA*d[5mC]*dT*dG*dG*dT*dG*dT*d[5mC]*d[5mC]*eT*eA*eT*eG*eA; antisense) [compound 531018],54%
8,531014 (eA*eG*e[5mC]*eT*eT*d[5mC]*dA*d[5mC]*d[5mC]*dT*dG*d[5mC]*dA*dG*dG*e[5mC]*eT*e[5mC]*eA*e[5mC]; antisense) [compound 531014],0%

# Same assay, conditions: Table 3; HepaRG cells, electroporation with 3,000 nM antisense oligonucleotide, approx. 24 hours; PKK mRNA by RT-PCR (RTS3454), relative to untreated control cells
row,Substance,% inhibition
1,531124 (antisense eG*eT*eA*e[5mC]*eT*dA*dA*dA*d[5mC]*dA*dT*d[5mC]*d[5mC]*dT*dA*eA*eG*eT*eG*eA) [compound 531124],2%
2,531116 (antisense eT*eT*eG*eT*eT*dA*dA*dG*dG*dT*dT*dG*dT*dA*dG*eA*eG*eA*eG*eA) [compound 531116],23%

# Same assay, conditions: Table 4; HepaRG cells, electroporation with 3,000 nM antisense oligonucleotide, approx. 24 hours; PKK mRNA by RT-PCR (RTS3454), relative to untreated control cells
row,Substance,% inhibition
1,531230 (e[5mC]*eT*eT*eA*e[5mC]*dT*dG*dG*dG*d[5mC]*dT*dA*dA*dA*dA*eT*e[5mC]*eA*eA*eG; antisense) [compound 531230],46%
2,531187 (eA*eT*e[5mC]*eT*eA*dT*dT*dG*dG*dT*dT*d[5mC]*dA*dG*dG*eA*eG*e[5mC]*e[5mC]*eA; antisense) [compound 531187],72%
3,531195 (eA*eT*eA*eA*eA*dA*dT*dA*dT*dA*dT*dT*dA*dA*dG*eG*e[5mC]*eA*eA*e[5mC]; antisense) [compound 531195],61%
4,531191 (eA*eA*eG*eT*eG*dT*dA*dT*dT*dG*d[5mC]*d[5mC]*dT*dA*dG*eA*eT*eT*eT*e[5mC]; antisense) [compound 531191],37%
